Measurements as given in patent publication US20260285850A1, “SUBSTITUTED OXAZOLIDINONES AND IMIDAZOLINONES AS HERBICIDES” (FMC CORPORATION, priority 2023, published 2026).

Assays:
Assay type in all cases: in vivo
[1] = tested on: barnyardgrass (Echinochloa crus-galli); test: Test A preemergence soil spray, visual injury rating 0-100; conditions: 10 days
Method in brief: (§1)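 Plants were grown in a loam soil-sand blend and treated with test chemical in a non-phytotoxic solvent mixture containing surfactant, either sprayed on soil preemergence or applied postemergence to 2-10 cm plants. After 10 days in a greenhouse, injury was scored visually against untreated controls, 0 meaning no effect and 100 complete control.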

[2] = tested on: blackgrass (Alopecurus myosuroides); test: as above; conditions: 10 days
Method in brief: as §1

corn (Zea mays) [3] = test: as above; conditions: 10 days
Method in brief: as §1

[4] = tested on: green foxtail (Setaria viridis); test: as above; conditions: 10 days
Method in brief: as §1

kochia (Bassia scoparia) [5] = test: as above; conditions: 10 days, 0 = no effect, 100 = complete control
Method in brief: as §1

[6] = tested on: oat, wild (wild oat, Avena fatua); test: as above; conditions: 10 days
Method in brief: as §1

[7] = tested on: palmer (palmer amaranth, palmer pigweed, Amaranthus palmeri); test: as above; conditions: 10 days
Method in brief: as §1

[8] = tested on: ryegrass, Italian (italian ryegrass, Lolium multiflorum); test: as above; conditions: 10 days
Method in brief: as §1

soybean (Glycine max) [9] = test: as above; conditions: 10 days
Method in brief: as §1

[10] = tested on: wheat (Triticum aestivum); test: as above; conditions: 10 days
Method in brief: as §1

[11] = tested on: barnyardgrass (Echinochloa crus-galli); test: Test A postemergence application, visual injury rating 0-100; conditions: for Barnyardgrass plant response rating (0 to 100 scale): Postemergence
Method in brief: as §1

[12] = tested on: blackgrass (Alopecurus myosuroides); test: as above; conditions: for Blackgrass plant response rating (0 to 100 scale): Postemergence
Method in brief: as §1

corn (Zea mays) [13] = test: as above; conditions: for Corn plant response rating (0 to 100 scale): Postemergence
Method in brief: as §1

[14] = tested on: galium (catchweed bedstraw, Galium aparine); test: as above; conditions: Postemergence
Method in brief: as §1

[15] = tested on: green foxtail (Setaria viridis); test: as above; conditions: for Foxtail, Green plant response rating (0 to 100 scale): Postemergence
Method in brief: as §1

[16] = tested on: horseweed (Erigeron canadensis); test: as above; conditions: for Horseweed plant response rating (0 to 100 scale): Postemergence
Method in brief: as §1

kochia (Bassia scoparia) [17] = test: as above; conditions: for Kochia plant response rating (0 to 100 scale): Postemergence
Method in brief: as §1

[18] = tested on: oat, wild (wild oat, Avena fatua); test: as above; conditions: for Oat, Wild plant response rating (0 to 100 scale): Postemergence
Method in brief: as §1

[19] = tested on: palmer (palmer amaranth, palmer pigweed, Amaranthus palmeri); test: as above; conditions: for Amaranth, Palmer / Pigweed, Palmer plant response rating (0 to 100 scale): 0 is no effect, 100 is complete control
Method in brief: as §1

[20] = tested on: ragweed (common ragweed, Ambrosia artemisiifolia); test: as above; conditions: for Ragweed plant response rating (0 to 100 scale): Postemergence
Method in brief: as §1

[21] = tested on: ryegrass, Italian (italian ryegrass, Lolium multiflorum); test: as above; conditions: for Ryegrass, Italian plant response rating (0 to 100 scale): Postemergence
Method in brief: as §1

soybean (Glycine max) [22] = test: as above; conditions: for Soybean plant response rating (0 to 100 scale): Postemergence
Method in brief: as §1

[23] = tested on: wheat (Triticum aestivum); test: as above; conditions: for Wheat plant response rating (0 to 100 scale): Postemergence
Method in brief: as §1

[24] = tested on: barnyardgrass (Echinochloa crusgalli); test: Test B flooded paddy test, visual plant response rating 0-100; conditions: 250 g ai/ha, Flood, applied to paddy water, evaluated after 13 days
Method in brief: (§2)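 Each species was raised to two leaves before flooding to a 3 cm depth and dosing the water with compound. Injury was assessed by eye after 13 days under greenhouse conditions.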

[25] = tested on: ducksalad (Heteranthera limosa); test: as above; conditions: 250 g ai/ha, Flood, applied to paddy water, evaluated after 13 days
Method in brief: as §2

rice (Oryza sativa) = test: as above; conditions: 250 g ai/ha, Flood, applied to paddy water, evaluated after 13 days
Method in brief: as §2

[26] = tested on: sedge, umbrella (small-flower umbrella sedge, Cyperus difformis); test: as above; conditions: 250 g ai/ha, Flood, applied to paddy water, evaluated after 13 days
Method in brief: as §2

[27] = tested on: ragweed (common ragweed, Ambrosia artemisiifolia); test: Test A preemergence soil spray, visual injury rating 0-100; conditions: 10 days
Method in brief: as §1

[28] = 125 g ai/ha, 0 = no effect, 100 = complete control
[29] = 500 g ai/ha, 0 = no effect, 100 = complete control
[30] = 125 g ai/ha, 10 days, 0 is no effect, 100 is complete control
[31] = 500 g ai/ha, 10 days, 0 is no effect, 100 is complete control
[32] = 62 g ai/ha, 0 = no effect, 100 = complete control
[33] = 62 g ai/ha, postemergence, 10 days, 0 = no effect, 100 = complete control
[34] = 16 g ai/ha, greenhouse 10 days, 0 no effect, 100 complete control

SMILES: COCCOC(=O)C1C=CC(NC(=O)C2(C)CN(c3cc(F)cc(F)c3)C(=O)O2)C1 (stereo not drawn) [Compound 36]
- Barnyardgrass plant response rating (0 to 100 scale) [1, 28]: 100
- Barnyardgrass plant response rating (0 to 100 scale) [1, 29]: 100
- Blackgrass plant response rating (0 to 100 scale) [2, 28]: 80
- Blackgrass plant response rating (0 to 100 scale) [2, 29]: 100
- Corn plant response rating (0 to 100 scale) (corn (Zea mays) [3]; [28]): 90
- Corn plant response rating (0 to 100 scale) (corn (Zea mays) [3]; [29]): 90
- Foxtail, Green plant response rating (0 to 100 scale) [4, 28]: 100
- Foxtail, Green plant response rating (0 to 100 scale) [4, 29]: 100
- Kochia plant response rating (0 to 100 scale) (kochia (Bassia scoparia) [5]; 125 g ai/ha): 90
- Kochia plant response rating (0 to 100 scale) (kochia (Bassia scoparia) [5]; 500 g ai/ha): 100
- Oat, Wild plant response rating (0 to 100 scale) [6, 28]: 90
- Oat, Wild plant response rating (0 to 100 scale) [6, 29]: 90
- Amaranth, Palmer plant response rating (0 to 100 scale) [7, 28]: 80
- Amaranth, Palmer plant response rating (0 to 100 scale) [7, 29]: 100
- Ryegrass, Italian plant response rating (0 to 100 scale) [8, 28]: 100
- Ryegrass, Italian plant response rating (0 to 100 scale) [8, 29]: 100
- Soybean plant response rating (0 to 100 scale) (soybean (Glycine max) [9]; [28]): 60
- Soybean plant response rating (0 to 100 scale) (soybean (Glycine max) [9]; [29]): 80
- Wheat plant response rating (0 to 100 scale) [10, 28]: 90
- Wheat plant response rating (0 to 100 scale) [10, 29]: 100
- Barnyardgrass plant response rating (0 to 100 scale) [11, 30]: 100
- Barnyardgrass plant response rating (0 to 100 scale) [11, 31]: 100
- Blackgrass plant response rating (0 to 100 scale) [12, 30]: 100
- Blackgrass plant response rating (0 to 100 scale) [12, 31]: 100
- Corn plant response rating (0 to 100 scale) (corn (Zea mays) [13]; [30]): 100
- Corn plant response rating (0 to 100 scale) (corn (Zea mays) [13]; [31]): 100
- Galium plant response rating (0 to 100 scale) [14, 30]: 70
- Galium plant response rating (0 to 100 scale) [14, 31]: 80
- Foxtail, Green plant response rating (0 to 100 scale) [15, 30]: 80
- Foxtail, Green plant response rating (0 to 100 scale) [15, 31]: 90
- Horseweed plant response rating (0 to 100 scale) [16, 30]: 70
- Horseweed plant response rating (0 to 100 scale) [16, 31]: 90
- Kochia plant response rating (0 to 100 scale) (kochia (Bassia scoparia) [17]; [30]): 60
- Kochia plant response rating (0 to 100 scale) (kochia (Bassia scoparia) [17]; [31]): 70
- Oat, Wild plant response rating (0 to 100 scale) [18, 30]: 90
- Oat, Wild plant response rating (0 to 100 scale) [18, 31]: 100
- Amaranth, Palmer / Pigweed, Palmer plant response rating (0 to 100 scale) ([19]; Postemergence, 125 g ai/ha, 10 days): 60
- Amaranth, Palmer / Pigweed, Palmer plant response rating (0 to 100 scale) ([19]; Postemergence, 500 g ai/ha, 10 days): 100
- Ragweed plant response rating (0 to 100 scale) [20, 30]: 60
- Ragweed plant response rating (0 to 100 scale) [20, 31]: 80
- Ryegrass, Italian plant response rating (0 to 100 scale) [21, 30]: 90
- Ryegrass, Italian plant response rating (0 to 100 scale) [21, 31]: 80
- Soybean plant response rating (0 to 100 scale) (soybean (Glycine max) [22]; [30]): 70
- Soybean plant response rating (0 to 100 scale) (soybean (Glycine max) [22]; [31]): 80
- Wheat plant response rating (0 to 100 scale) [23, 30]: 70
- Wheat plant response rating (0 to 100 scale) [23, 31]: 80
- Plant response rating, Barnyardgrass (0 to 100 scale, 0 is no effect and 100 is complete control) [24]: 60
- Plant response rating, Ducksalad (0 to 100 scale, 0 is no effect and 100 is complete control) [25]: 90
- Plant response rating, Rice (0 to 100 scale, 0 is no effect and 100 is complete control) (rice (Oryza sativa)): 55
- Plant response rating, Sedge, Umbrella (0 to 100 scale, 0 is no effect and 100 is complete control) [26]: 95

SMILES: COC(=O)C1=CCC(NC(=O)C2(C)CN(c3cc(Cl)cc(Cl)c3)C(=O)O2)C1 (stereo not drawn) [Compound 148]
- Barnyardgrass plant response rating ([1]; 16 g ai/ha, 0 to 100 scale): 0
- Barnyardgrass plant response rating (0-100) [1, 32]: 0
- Blackgrass plant response rating ([2]; 16 g ai/ha, 0 to 100 scale): 0
- Blackgrass plant response rating (0-100) [2, 32]: 0
- Corn plant response rating (corn (Zea mays) [3]; 16 g ai/ha, 0 to 100 scale): 0
- Corn plant response rating (0-100) (corn (Zea mays) [3]; [32]): 0
- Foxtail, Green plant response rating ([4]; 16 g ai/ha, 0 to 100 scale): 0
- Foxtail, Green plant response rating (0-100) [4, 32]: 0
- Oat, Wild plant response rating ([6]; 16 g ai/ha, 0 to 100 scale): 0
- Oat, Wild plant response rating (0-100) [6, 32]: 0
- Pigweed, Palmer plant response rating ([7]; 16 g ai/ha, 0 to 100 scale): 0
- Pigweed, Palmer plant response rating (0-100) [7, 32]: 0
- Ragweed plant response rating ([27]; 16 g ai/ha, 0 to 100 scale): 0
- Ragweed plant response rating (0-100) [27, 32]: 0
- Ryegrass, Italian plant response rating ([8]; 16 g ai/ha, 0 to 100 scale): 0
- Ryegrass, Italian plant response rating (0-100) [8, 32]: 0
- Soybean plant response rating (soybean (Glycine max) [9]; 16 g ai/ha, 0 to 100 scale): 0
- Soybean plant response rating (0-100) (soybean (Glycine max) [9]; [32]): 20
- Wheat plant response rating ([10]; 16 g ai/ha, 0 to 100 scale): 0
- Wheat plant response rating (0-100) [10, 32]: 0
- Barnyardgrass plant response rating (0-100) [11, 33]: 90
- Barnyardgrass plant response rating (0 to 100 scale) [11, 34]: 0
- Blackgrass plant response rating (0-100) [12, 33]: 70
- Blackgrass plant response rating (0 to 100 scale) [12, 34]: 0
- Corn plant response rating (0-100) (corn (Zea mays) [13]; [33]): 70
- Corn plant response rating (0 to 100 scale) (corn (Zea mays) [13]; [34]): 0
- Galium plant response rating (0 to 100 scale) [14, 34]: 40
- Foxtail, Green plant response rating (0-100) [15, 33]: 30
- Foxtail, Green plant response rating (0 to 100 scale) [15, 34]: 0
- Horseweed plant response rating (0-100) [16, 33]: 0
- Horseweed plant response rating (0 to 100 scale) [16, 34]: 0
- Kochia plant response rating (0-100) (kochia (Bassia scoparia) [17]; [33]): 80
- Kochia plant response rating (0 to 100 scale) (kochia (Bassia scoparia) [17]; [34]): 0
- Oat, Wild plant response rating (0-100) [18, 33]: 10
- Oat, Wild plant response rating (0 to 100 scale) [18, 34]: 0
- Pigweed, Palmer plant response rating (0-100) [19, 33]: 80
- Pigweed, Palmer plant response rating (0 to 100 scale) ([19]; Postemergence, 16 g ai/ha, greenhouse 10 days, 0 no effect, 100 complete control): 10
- Ragweed plant response rating (0-100) [20, 33]: 0
- Ragweed plant response rating (0 to 100 scale) [20, 34]: 0
- Ryegrass, Italian plant response rating (0-100) [21, 33]: 50
- Ryegrass, Italian plant response rating (0 to 100 scale) [21, 34]: 0
- Soybean plant response rating (0-100) (soybean (Glycine max) [22]; [33]): 50
- Soybean plant response rating (0 to 100 scale) (soybean (Glycine max) [22]; [34]): 0
- Wheat plant response rating (0-100) [23, 33]: 30
- Wheat plant response rating (0 to 100 scale) [23, 34]: 10
- Plant response rating, Barnyardgrass (0 to 100 scale, 0 is no effect and 100 is complete control) [24]: 0
- Plant response rating, Ducksalad (0 to 100 scale, 0 is no effect and 100 is complete control) [25]: 0
- Plant response rating, Rice (0 to 100 scale, 0 is no effect and 100 is complete control) (rice (Oryza sativa)): 0
- Plant response rating, Sedge, Umbrella (0 to 100 scale, 0 is no effect and 100 is complete control) [26]: 0
